From patent publication US9567302B2, “Carbamate compounds and of making and using same” (Abide Therapeutics, Inc., priority 2012, dated 2017)

How the values were obtained:
FAAH [1] = target: T1, FAAH (Mus musculus, UniProt O08914); test: In vitro competitive activity-based protein profiling (FP-Rh), mouse FAAH; type: biochemical; parameters: from tissue; host or cells: mouse brain membrane fraction; conditions: 30 min preincubation at 37° C.
T1 sequence (O08914 1-579): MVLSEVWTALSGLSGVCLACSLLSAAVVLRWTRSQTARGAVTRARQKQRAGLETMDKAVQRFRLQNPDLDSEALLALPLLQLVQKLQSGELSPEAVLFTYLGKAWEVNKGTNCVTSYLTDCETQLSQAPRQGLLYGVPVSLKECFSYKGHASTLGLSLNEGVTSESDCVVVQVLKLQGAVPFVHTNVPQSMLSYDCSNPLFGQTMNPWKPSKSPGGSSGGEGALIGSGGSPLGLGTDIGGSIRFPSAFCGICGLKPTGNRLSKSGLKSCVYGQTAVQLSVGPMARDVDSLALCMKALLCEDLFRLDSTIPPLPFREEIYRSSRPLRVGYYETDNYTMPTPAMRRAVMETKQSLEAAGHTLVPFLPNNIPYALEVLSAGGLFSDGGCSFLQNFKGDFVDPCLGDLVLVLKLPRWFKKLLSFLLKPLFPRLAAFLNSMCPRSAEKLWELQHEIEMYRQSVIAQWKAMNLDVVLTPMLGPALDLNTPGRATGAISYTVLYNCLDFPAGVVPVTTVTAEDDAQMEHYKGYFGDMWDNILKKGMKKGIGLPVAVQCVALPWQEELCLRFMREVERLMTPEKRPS
Experimental: (§1) In Vitro Competitive Activity-Based Protein Profiling.
(§2) Proteomes (mouse brain membrane fraction or cell lysates) (50 μL, 1.0 mg/ml total protein concentration) were preincubated with varying concentrations of inhibitors at 37° C. After 30 min, FP-Rh (1.0 μL, 50 μM in DMSO) was added and the mixture was incubated for another 30 min at 37° C. Reactions were quenched with SDS loading buffer (50 μL—4×) and run on SDS-PAGE.

MAGL [2] = target: T2, MAGL (Mus musculus, UniProt O35678); test: In vitro competitive activity-based protein profiling (FP-Rh), mouse MAGL; type: biochemical; parameters: from tissue; host or cells: mouse brain membrane fraction; conditions: 30 min preincubation at 37° C.
T2 sequence (O35678 1-303): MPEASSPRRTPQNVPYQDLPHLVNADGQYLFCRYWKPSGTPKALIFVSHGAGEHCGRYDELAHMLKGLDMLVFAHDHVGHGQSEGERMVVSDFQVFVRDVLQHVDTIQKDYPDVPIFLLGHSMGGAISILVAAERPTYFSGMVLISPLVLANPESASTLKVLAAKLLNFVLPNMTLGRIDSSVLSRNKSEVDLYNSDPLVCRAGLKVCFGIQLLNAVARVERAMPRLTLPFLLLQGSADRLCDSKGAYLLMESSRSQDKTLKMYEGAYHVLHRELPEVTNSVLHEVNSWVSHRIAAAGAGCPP
Experimental: as §1, §2

hMAGL = target: T3, hMAGL (Homo sapiens, UniProt Q99685); test: Competitive ABPP with human MAGL recombinantly expressed in HEK293T cells; type: biochemical; conditions: Table 1; hMAGL-HEK293T cell lysates
T3 construct: expressed in transfected cells; host or cells: HEK293T
T3 sequence (Q99685 1-303): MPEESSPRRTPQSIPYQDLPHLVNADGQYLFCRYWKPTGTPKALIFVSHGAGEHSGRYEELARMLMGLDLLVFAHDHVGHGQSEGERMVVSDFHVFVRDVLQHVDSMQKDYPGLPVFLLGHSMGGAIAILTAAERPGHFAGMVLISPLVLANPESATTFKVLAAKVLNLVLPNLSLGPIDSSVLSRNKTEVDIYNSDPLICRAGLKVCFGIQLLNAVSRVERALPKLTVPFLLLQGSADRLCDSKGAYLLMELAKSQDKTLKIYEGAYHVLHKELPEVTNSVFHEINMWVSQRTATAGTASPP
Experimental: as §2
Recombinant Expression of Human MAGL in HEK293T Cells.
Cell lysates were diluted with mock proteomes for use in competitive ABPP experiments.

ABHD6 [3] = target: T4, ABHD6 (Mus musculus, UniProt Q8R2Y0); test: In vitro competitive activity-based protein profiling (FP-Rh), mouse ABHD6; type: biochemical; parameters: from tissue; host or cells: mouse brain membrane fraction; conditions: 30 min preincubation at 37° C.
T4 sequence (Q8R2Y0 1-336): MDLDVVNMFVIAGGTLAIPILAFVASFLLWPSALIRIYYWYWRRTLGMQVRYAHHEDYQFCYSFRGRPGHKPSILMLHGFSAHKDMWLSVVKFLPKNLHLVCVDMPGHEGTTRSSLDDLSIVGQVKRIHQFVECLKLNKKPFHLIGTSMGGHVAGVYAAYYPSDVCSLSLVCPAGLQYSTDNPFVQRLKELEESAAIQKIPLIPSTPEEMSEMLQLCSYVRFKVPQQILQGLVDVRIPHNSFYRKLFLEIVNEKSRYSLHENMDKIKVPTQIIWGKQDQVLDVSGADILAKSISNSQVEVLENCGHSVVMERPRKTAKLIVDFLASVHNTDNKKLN
Experimental: as §1, §2

MAGL [4] = target: T2, MAGL; test: Mouse brain MAGL inhibition in proteomes from inhibitor treated mice (oral gavage); type: in vivo; parameters: from tissue; host or cells: mouse brain membrane fraction; conditions: p.o., C57Bl/6J mice, brain proteome 4 h following administration
Experimental: as §2
Preparation of Mouse Brain Proteomes from Inhibitor Treated Mice.
Inhibitors were administered to wild-type C57B1/6J by oral gavage in a vehicle of polyethylene glycol.

ABHD6 [5] = target: T4, ABHD6; test: In vitro competitive ABPP, % inhibition at fixed concentration, ABHD6; type: biochemical; parameters: from tissue
Procedure, shortened: (§3)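 Mouse brain membrane proteome or cell lysate at 1.0 mg/ml was preincubated with inhibitor for 30 min at 37° C, then labelled with FP-Rh for another 30 min. After SDS-PAGE, activity was quantified from the fluorescent intensity of the MAGL, ABHD6 and FAAH bands.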

MAGL [6] = target: T2, MAGL; test: In vitro competitive ABPP, % inhibition at fixed concentration, MAGL; type: biochemical; parameters: from tissue
Procedure, shortened: as §3

FAAH [7] = target: T1, FAAH; test: In vitro competitive ABPP, % inhibition at fixed concentration, FAAH; type: biochemical; parameters: from tissue
Procedure, shortened: as §3

IC50 (FAAH [1]; Table 1, mouse proteome) [nM] | IC50 (MAGL [2]; Table 1, mouse proteome) [nM] | IC50 (hMAGL) [µM] | IC50 (ABHD6 [3]; Table 1, mouse proteome) [nM] | inhibition at 10 µM (ABHD6 [5]) [%] | inhibition at 10 µM (MAGL [6]) [%] | inhibition at 10 µM (FAAH [7]) [%] | SMILES | other results
1000 to 10000 | < 100 | < 0.1 | < 100 | – | – | – | O=C(ON1C(=O)CCC1=O)N1CCN(Cc2cccc(Oc3ccccc3)c2)CC1 [Example 7, 2,5-Dioxopyrrolidin-1-yl 4-[(3-phenoxyphenyl)methyl]piperazine-1-carboxylate] | –
100 to 1000 | < 100 | < 0.1 | < 100 | – | – | – | O=C(ON1C(=O)CCC1=O)N1CCC(CCc2ccc(Cl)cc2)CC1 [Example 8, 2,5-Dioxopyrrolidin-1-yl 4-[2-(4-chlorophenyl)ethyl]piperidine-1-carboxylate] | –
1000 to 10000 | < 100 | < 0.1 | < 100 | – | – | – | O=C(ON1C(=O)CCC1=O)N1CCN(Cc2ccccc2Oc2ccccc2)CC1 [Example 35, 2,5-Dioxopyrrolidin-1-yl 4-[(2-phenoxyphenyl)methyl]piperazine-1-carboxylate] | –
1000 to 10000 | < 100 | < 0.1 | 1000 to 10000 | – | – | – | O=C(CN1CCN(C(=O)ON2C(=O)CCC2=O)CC1)Nc1cc(C(F)(F)F)ccc1Cl [Example 36, 2,5-Dioxopyrrolidin-1-yl 4-(2-((2-chloro-5-(trifluoromethyl)phenyl)amino)-2-oxoethyl)piperazine-1-carboxylate] | –
1000 to 10000 | < 100 | < 0.1 | 100 to 1000 | – | – | – | O=C(ON1C(=O)CCC1=O)N1CCN(Cc2ccc(Br)cc2Oc2ccccc2)CC1 [Example 37, 2,5-Dioxopyrrolidin-1-yl 4-[(4-bromo-2-phenoxyphenyl)methyl]piperazine-1-carboxylate] | –
> 10000 | < 100 | – | 100 to 1000 | – | – | – | CC1CC(=O)N(OC(=O)N2CCN(C(c3ccc(Cl)cc3)c3ccc(Cl)cc3)CC2)C1=O (stereo not drawn) [Example 41, 3-Methyl-2,5-dioxopyrrolidin-1-yl 4-(bis(4-chlorophenyl)methyl)piperazine-1-carboxylate] | inhibition at 20 mg/kg (MAGL [4]): > 95%
> 10000 | < 100 | – | 100 to 1000 | – | – | – | O=C(ON1C(=O)CNC1=O)N1CCN(C(c2ccc(Cl)cc2)c2ccc(Cl)cc2)CC1 [Example 46, 2,5-Dioxoimidazolidin-1-yl 4-(bis(4-chlorophenyl)methyl)piperazine-1-carboxylate] | inhibition at 20 mg/kg (MAGL [4]): > 95%
– | – | – | – | – | – | – | O=C(ON1C(=O)CCC1=O)N1CCN(Cc2ccc(C(F)(F)F)cc2N2CCCC2)CC1 [Example 105, 2,5-Dioxopyrrolidin-1-yl 4-{[2-(pyrrolidin-1-yl)-4-(trifluoromethyl)phenyl]methyl}piperazine-1-carboxylate] | IC50 (FAAH [1]; Table 2, mouse proteome): > 10000 nM; IC50 (MAGL [2]; Table 2, mouse proteome): < 100 nM; IC50 (ABHD6 [3]; Table 2, mouse proteome): 1000 to 10000 nM; inhibition at 5 mg/kg (MAGL [4]; 5 mg/kg): 75%
– | – | – | – | – | – | – | O=C(ON1C(=O)CCC1=O)N1CCN(Cc2ccc(Cl)c(C(=O)N3CCC3)c2)CC1 [Example 210, 2,5-Dioxopyrrolidin-1-yl 4-{[3-(azetidine-1-carbonyl)-4-chlorophenyl]methyl}piperazine-1-carboxylate] | inhibition at 1 µM (ABHD6 [5]): 25 to 75%; inhibition at 1 µM (MAGL [6]): < 25%; inhibition at 1 µM (FAAH [7]): < 25%
– | – | – | – | 25 to 75 | 25 to 75 | < 25 | O=C(ON1C(=O)CCC1=O)N1CCN(C(=O)c2cccc(Cl)c2)CC1 [Example 211, 2,5-Dioxopyrrolidin-1-yl 4-(3-chlorobenzoyl)piperazine-1-carboxylate] | –
– | – | – | – | < 25 | 25 to 75 | < 25 | O=C(ON1C(=O)CCC1=O)N1CCN(C(=O)c2ccccc2)CC1 [Example 212, 2,5-Dioxopyrrolidin-1-yl 4-benzoylpiperazine-1-carboxylate] | –
– | – | – | – | < 25 | < 25 | < 25 | O=C(CN1CCCCC1)N1CCN(C(=O)ON2C(=O)CCC2=O)CC1 [Example 213, 2,5-Dioxopyrrolidin-1-yl 4-[2-(piperidin-1-yl)acetyl]piperazine-1-carboxylate] | –
– | – | – | – | < 25 | < 25 | < 25 | O=C(CN1CCCC1)N1CCN(C(=O)ON2C(=O)CCC2=O)CC1 [Example 214, 2,5-Dioxopyrrolidin-1-yl 4-[2-(pyrrolidin-1-yl)acetyl]piperazine-1-carboxylate] | –
– | – | – | – | < 25 | < 25 | < 25 | O=C(CN1CCOCC1)N1CCN(C(=O)ON2C(=O)CCC2=O)CC1 [Example 215, 2,5-Dioxopyrrolidin-1-yl 4-[2-(morpholin-4-yl)acetyl]piperazine-1-carboxylate] | –
– | – | – | – | < 25 | < 25 | < 25 | O=C(CN1CCC1)N1CCN(C(=O)ON2C(=O)CCC2=O)CC1 [Example 216, 2,5-Dioxopyrrolidin-1-yl 4-[2-(azetidin-1-yl)acetyl]piperazine-1-carboxylate] | –
– | – | – | – | < 25 | < 25 | < 25 | O=C(ON1C(=O)CCC1=O)N1CCC(N2CCCC2)CC1 [Example 217, 2,5-Dioxopyrrolidin-1-yl 4-(pyrrolidin-1-yl)piperidine-1-carboxylate] | –
– | – | – | – | < 25 | < 25 | < 25 | O=C(ON1C(=O)CCC1=O)N1CCC(N2CCCCC2)CC1 [Example 218, 2,5-Dioxopyrrolidin-1-yl 4-(piperidine-1-yl)piperidine-1-carboxylate] | –
– | – | – | – | 25 to 75 | < 25 | < 25 | O=C(ON1C(=O)CCC1=O)N1CCC(N2CCCC2=O)CC1 [Example 219, 2,5-Dioxopyrrolidin-1-yl 4-(2-oxopyrrolidin-1-yl)piperidine-1-carboxylate] | –
– | – | – | – | 25 to 75 | < 25 | < 25 | O=C(ON1C(=O)CCC1=O)N1CCC(N2CCCCC2=O)CC1 [Example 220, 2,5-Dioxopyrrolidin-1-yl 4-(2-oxopiperidin-1-yl)piperidine-1-carboxylate] | –

SMILES | IC50 (FAAH [1]; Table 1, mouse proteome) [nM] | IC50 (MAGL [2]; Table 1, mouse proteome) [nM] | IC50 (hMAGL) [µM] | IC50 (ABHD6 [3]; Table 1, mouse proteome) [nM] | inhibition at 10 µM (ABHD6 [5]) [%] | inhibition at 10 µM (MAGL [6]) [%] | inhibition at 10 µM (FAAH [7]) [%] | other results
COc1ccc(N2CCN(C(=O)ON3C(=O)CCC3=O)CC2)cc1 [Example 5, 2,5-Dioxopyrrolidin-1-yl 4-(4-methoxyphenyl)piperazine-1-carboxylate] | > 10000 | 1000 to 10000 | 1 to 10 | 1000 to 10000 | – | – | – | –
